Experiments:
Type in all cases: in vivo, C57BL/6 mice
[1] = tested on: gene expression of IL-1β and IL-6 in the brains of S1 mice; assay: RT-qPCR of inflammatory cytokine genes in brains of S1 mice after intracerebroventricular PNU282987; details: PNU282987 400 nmol/mouse intracerebroventricularly on 7th day; brains collected one hour later; FIG. 14
[2] = tested on: gene expression of zinc finger protein 36 (Zfp36) in the brains of S1 mice; assay: RT-qPCR of Zfp36 in brains of S1 mice after PNU282987; details: PNU282987 400 nmol/mouse intracerebroventricularly; cDNA of Example 10; FIG. 15
Protocol: Therefore, to the S1 mice and the control mice, on the 7th day after nasal administration of S1/Adv or vector/Adv, PNU282987, which is an agonist specific to the a7 nicotinic acetylcholine receptor, was administered intracerebroventricularly at a dose of 400 nmol/mouse, and the therapeutic effect on brain inflammation in the S1 mice was examined.
One hour after the intracerebroventricular administration of PNU282987, the brains excluding the olfactory bulbs were collected, and RNA was purified with the RNeasy Mini Kit (QIAGEN). The purified RNA was used as a template to synthesize cDNA with the PrimeScript RT reagent Kit (Takara-Bio Inc.). Using the synthesized cDNA, the gene expression of interleukin-1β (IL-1β) and interleukin-6 (IL-6) was analyzed by RT-qPCR. The measurement results of 18S rRNA were used for normalization.
To elucidate the molecular mechanism of the therapeutic effect of PNU282987 on brain inflammation in Example 10, the impact of S1 and […] on the gene expression level of zinc finger protein 36 (Zfp36), which is a host protein with anti-inflammatory effects, was examined. Specifically, using the synthesized cDNA in Example 10, the gene expression of Zfp36 was analyzed by RT-qPCR. The measurement results of 18S rRNA were used for normalization.

[3] = tested on: S1 mice (COVID-19 sequela model animals); assay: 10% weight-loaded forced swimming test (fatigue behavioral test) after donepezil; details: donepezil 4.0 mg/kg/day via drinking water; 6th day after nasal S1/Adv; without donepezil, S1 mice significantly shorter; FIG. 11
[4] = tested on: S1 mice (COVID-19 sequela model animals); assay: Tail suspension test (depressive disorder-like behavior) after donepezil; details: donepezil 4.0 mg/kg/day via drinking water; 6th day after nasal S1/Adv; 10 minutes suspension; without donepezil, S1 mice significantly increased; FIG. 12

Compound | increased expression level of IL-1β gene in the brain of S1 mice [1] | increased expression level of IL-6 gene in the brain of S1 mice [1] | decrease in ZFP36 gene expression in S1 mice [2] | swimming time, S1 mice vs control mice [3] | immobility time in the tail suspension test, S1 mice vs control mice [4]
O=C(N[C@H]1CN2CCC1CC2)c1ccc(Cl)cc1 [PNU282987] | suppressed | suppressed | improved | – | –
COc1cc2c(cc1OC)C(=O)C(CC1CCN(Cc3ccccc3)CC1)C2.Cl (centres unmarked) [donepezil, 2-[(1-benzyl-4-piperidyl)methyl]-5,6-dimethoxyindan-1-one hydrochloride] | – | – | – | no difference was observed | significantly decreased

— patent US20250090516A1, “DRUG FOR TREATING AF[…] NOVEL CORONAVIRUS INFECTION” (THE JIKEI UNIVERSITY, priority 2022, published 2025)
